Source: ChEMBL document CHEMBL5236634, “Membrane-Targeting Neolignan-Antimicrobial Peptide Mimic Conjugates to Combat Methicillin-Resistant Staphylococcus aureus (MRSA) Infections” (J Med Chem, 2022)
≈ marks a conversion by molar mass, not a printed value.

How the values were obtained:
Salmonella enterica [1] = assay: Antibacterial activity against Salmonella enterica 8389 assessed as inhibition of bacterial growth incubated for 16 to 20 hrs by CLSI based microdilution method; type: functional; details: time 16-20 hrs
Salmonella enterica [2] = assay: Antibacterial activity against Salmonella enterica H9812 assessed as inhibition of bacterial growth incubated for 16 to 20 hrs by CLSI based microdilution method; type: functional; details: time 16-20 hrs
[3] = Hemolytic activity in sheep RBC incubated for 1 hr by absorbance based analysis; type: toxicity, cell-based, Ovis aries, Erythrocyte; details: sheep red blood cells
Micrococcus luteus = assay: Antibacterial activity against Micrococcus luteus assessed as inhibition of bacterial growth incubated for 16 to 20 hrs by CLSI based microdilution method; type: functional; details: time 16-20 hrs
Enterococcus faecalis = assay: Antibacterial activity against Enterococcus faecalis ATCC 29212 assessed as inhibition of bacterial growth incubated for 16 to 20 hrs by CLSI based microdilution method; type: functional; details: time 16-20 hrs
Escherichia coli = assay: Antibacterial activity against Escherichia coli ATCC 25922 assessed as inhibition of bacterial growth incubated for 16 to 20 hrs by CLSI based microdilution method; type: functional; details: time 16-20 hrs
Staphylococcus aureus = assay: Antibacterial activity against Staphylococcus aureus ATCC 29213 assessed as inhibition of bacterial growth incubated for 16 to 20 hrs by CLSI based microdilution method; type: functional; details: time 16-20 hrs
[4] = Selectivity index, ratio of HC50 for hemolytic activity in sheep RBC to MIC for antibacterial activity against Staphylococcus aureus ATCC 29213; type: toxicity; details: sheep red blood cells

| Compound | MIC (Salmonella enterica [1]) | MIC (Salmonella enterica [2]) | MIC (Micrococcus luteus) | MIC (Enterococcus faecalis) | MIC (Escherichia coli) | MIC (Staphylococcus aureus) | HC50 at 1 h [3] | selectivity ratio [4] |
| --- | --- | --- | --- | --- | --- | --- | --- | --- |
| C=CCc1cccc(Oc2ccc(C(=O)CC)cc2)c1OCC[N+](C)(C)CC(=O)NCCCC.[Br-] | 128 µg/mL | 64 µg/mL | 64 µg/mL | 64 µg/mL | 64 µg/mL | 32 µg/mL | 1150 µg/mL | 35.9 |
| C=CCc1cccc(Oc2ccc(C(=O)CC)cc2)c1OCCC[N+](C)(C)CC(=O)NCCC.[Br-] | 64 µg/mL | 32 µg/mL | 64 µg/mL | 64 µg/mL | 64 µg/mL | 64 µg/mL | > 1280 µg/mL | > 20 |
| CCCCCCNC(=O)C[N+](C)(C)CCOc1ccccc1Oc1ccc(C(=O)CC)cc1.[Br-] | – | – | – | – | > 128 µg/mL | 16 µg/mL | 918 µg/mL | 57.4 |
| C[C@@H](O)[C@H]1C(=O)N2C(C(=O)O)=C(S[C@@H]3CN[C@H](C(=O)N(C)C)C3)[C@H](C)[C@H]12 [MEROPENEM] | 0.125 µg/mL (≈ 0.326 µM) | 0.125 µg/mL (≈ 0.326 µM) | – | – | 0.125 µg/mL (≈ 0.326 µM) | – | – | – |
| Br.C=CCc1cccc(Oc2ccc(C(=O)CC)cc2)c1OCCCCSC(=N)N | 64 µg/mL | 128 µg/mL | 16 µg/mL | 32 µg/mL | 32 µg/mL | 16 µg/mL | 931 µg/mL | 58.2 |
| C=CCc1cccc(Oc2ccc(C(=O)CC)cc2)c1OCC[N+](C)(C)CC(=O)NCC.[Br-] | 128 µg/mL | 128 µg/mL | 32 µg/mL | 32 µg/mL | 64 µg/mL | 32 µg/mL | 509 µg/mL | 15.9 |
| C=CCc1cccc(Oc2ccc(C(=O)CC)cc2)c1OCC[N+](C)(C)CC(=O)NCCC.[Br-] | > 128 µg/mL | 128 µg/mL | 64 µg/mL | 32 µg/mL | 128 µg/mL | 32 µg/mL | 634 µg/mL | 19.8 |
| C=CCc1cccc(Oc2ccc(C(=O)CC)cc2)c1OCCCC[N+](C)(C)CC(=O)NCC.[Br-] | 32 µg/mL | 64 µg/mL | 128 µg/mL | 128 µg/mL | 64 µg/mL | 64 µg/mL | 785 µg/mL | 12.2 |
| C=CCc1cccc(Oc2ccc(C(=O)CC)cc2)c1OCC[N+](C)(C)CC(=O)N1CCCC1.[Br-] | > 128 µg/mL | 64 µg/mL | 32 µg/mL | 64 µg/mL | 128 µg/mL | 32 µg/mL | 543 µg/mL | 17 |
| C=CCc1cccc(Oc2ccc(C(=O)CC)cc2)c1OCCC[N+](C)(C)CC(=O)NCC.[Br-] | > 128 µg/mL | > 128 µg/mL | 64 µg/mL | 64 µg/mL | 64 µg/mL | 64 µg/mL | 501 µg/mL | 7.8 |
| C=CCc1cccc(Oc2ccc(C(=O)CC)cc2)c1OCCC[N+](C)(C)CC(=O)N1CCCC1.[Br-] | 64 µg/mL | 64 µg/mL | 32 µg/mL | 32 µg/mL | 128 µg/mL | 16 µg/mL | 526 µg/mL | 32.8 |
| CCCCCCNC(=O)C[N+](C)(C)CCCOc1ccccc1Oc1ccc(C(=O)CC)cc1.[Br-] | – | – | – | – | > 128 µg/mL | 4 µg/mL | 536 µg/mL | 134 |
| Br.C=CCc1cccc(Oc2ccc(C(=O)CC)cc2)c1OCCSC(=N)N | 64 µg/mL | 128 µg/mL | 64 µg/mL | 64 µg/mL | 64 µg/mL | 32 µg/mL | 789 µg/mL | 24.6 |
| C=CCc1cccc(Oc2ccc(C(=O)CC)cc2)c1O | > 128 µg/mL | > 128 µg/mL | 64 µg/mL (≈ 227 µM) | 128 µg/mL (≈ 453 µM) | 128 µg/mL (≈ 453 µM) | 128 µg/mL (≈ 453 µM) | 438 µg/mL | 3.4 |
| Br.C=CCc1cccc(Oc2ccc(C(=O)CC)cc2)c1OCCCSC(=N)N | 64 µg/mL | 64 µg/mL | 32 µg/mL | 64 µg/mL | 32 µg/mL | 16 µg/mL | 894 µg/mL | 55.8 |
| C=CCc1ccc(O)c(Oc2ccc(C(=O)CC)cc2)c1 | > 128 µg/mL | 128 µg/mL (≈ 453 µM) | 64 µg/mL (≈ 227 µM) | 128 µg/mL (≈ 453 µM) | 128 µg/mL (≈ 453 µM) | 128 µg/mL (≈ 453 µM) | > 640 µg/mL | > 5 |
| C=CCc1cccc(Oc2ccc(C(=O)CC)cc2)c1OCC[N+](C)(C)CC(=O)NCCCCC.[Br-] | 64 µg/mL | 64 µg/mL | 16 µg/mL | 16 µg/mL | 32 µg/mL | 8 µg/mL | 1550 µg/mL | 194 |
| C=CCc1cccc(Oc2ccc(C(=O)CC)cc2)c1OCCCC[N+](C)(C)CC(=O)N1CCCC1.[Br-] | 128 µg/mL | 128 µg/mL | 32 µg/mL | 16 µg/mL | 64 µg/mL | 16 µg/mL | 579 µg/mL | 36.2 |

Continued, in another order:

| MIC (Salmonella enterica [1]) | MIC (Salmonella enterica [2]) | MIC (Micrococcus luteus) | MIC (Enterococcus faecalis) | MIC (Escherichia coli) | MIC (Staphylococcus aureus) | Compound | HC50 at 1 h [3] | selectivity ratio [4] |
| --- | --- | --- | --- | --- | --- | --- | --- | --- |
| 32 µg/mL | 128 µg/mL | 16 µg/mL | 16 µg/mL | 64 µg/mL | 8 µg/mL | C=CCc1cccc(Oc2ccc(C(=O)CC)cc2)c1OCCCC[N+](C)(C)CC(=O)NCCCC.[Br-] | 1110 µg/mL | 138 |
| 128 µg/mL | 128 µg/mL | 16 µg/mL | 16 µg/mL | 64 µg/mL | 4 µg/mL | C=CCc1cccc(Oc2ccc(C(=O)CC)cc2)c1OCCC[N+](C)(C)CC(=O)N(CCCC)CCCC.[Br-] | 776 µg/mL | 194 |
| > 128 µg/mL | > 128 µg/mL | 32 µg/mL | 64 µg/mL | 128 µg/mL | 64 µg/mL | C=CCc1cccc(Oc2ccc(C(=O)CC)cc2)c1OCC[N+](C)(C)CC(=O)N(CC)CC.[Br-] | 690 µg/mL | 10.8 |
| 32 µg/mL | 64 µg/mL | 16 µg/mL | 16 µg/mL | 64 µg/mL | 8 µg/mL | C=CCc1cccc(Oc2ccc(C(=O)CC)cc2)c1OCC[N+](C)(C)CC(=O)N(CCC)CCC.[Br-] | 1110 µg/mL | 138 |
| 64 µg/mL | 32 µg/mL | 64 µg/mL | 16 µg/mL | 32 µg/mL | 4 µg/mL | C=CCc1cccc(Oc2ccc(C(=O)CC)cc2)c1OCCCC[N+](C)(C)CC(=O)NCCCCCC.[Br-] | 642 µg/mL | 160 |
| 128 µg/mL | 64 µg/mL | 32 µg/mL | 16 µg/mL | 32 µg/mL | 8 µg/mL | C=CCc1cccc(Oc2ccc(C(=O)CC)cc2)c1OCCC[N+](C)(C)CC(=O)NCCCC.[Br-] | 507 µg/mL | 63.3 |
| 128 µg/mL | 128 µg/mL | 32 µg/mL | 8 µg/mL | 64 µg/mL | 8 µg/mL | C=CCc1cccc(Oc2ccc(C(=O)CC)cc2)c1OCC[N+](C)(C)CC(=O)N(CCCC)CCCC.[Br-] | 834 µg/mL | 104 |
| > 128 µg/mL | > 128 µg/mL | 64 µg/mL | 32 µg/mL | 64 µg/mL | 32 µg/mL | C=CCc1cccc(Oc2ccc(C(=O)CC)cc2)c1OCCCC[N+](C)(C)CC(=O)N(CC)CC.[Br-] | > 1280 µg/mL | > 40 |
| 128 µg/mL | 128 µg/mL | 64 µg/mL | 32 µg/mL | 64 µg/mL | 32 µg/mL | C=CCc1cccc(Oc2ccc(C(=O)CC)cc2)c1OCCCC[N+](C)(C)CC(=O)N(CCC)CCC.[Br-] | 933 µg/mL | 29.1 |
| 64 µg/mL | 128 µg/mL | 32 µg/mL | 16 µg/mL | 64 µg/mL | 16 µg/mL | C=CCc1cccc(Oc2ccc(C(=O)CC)cc2)c1OCCC[N+](C)(C)CC(=O)N(CCC)CCC.[Br-] | 854 µg/mL | 53.3 |
| 32 µg/mL | 64 µg/mL | 32 µg/mL | 16 µg/mL | 32 µg/mL | 2 µg/mL | C=CCc1cccc(Oc2ccc(C(=O)CC)cc2)c1OCCCC[N+](C)(C)CC(=O)N(CCCC)CCCC.[Br-] | 776 µg/mL | 388 |
| 8 µg/mL | > 128 µg/mL | 32 µg/mL | 8 µg/mL | 16 µg/mL | 4 µg/mL | C=CCc1cccc(Oc2ccc(C(=O)CC)cc2)c1OCCC[N+](C)(C)CC(=O)NCCCCC.[Br-] | 690 µg/mL | 172 |
| 64 µg/mL | 32 µg/mL | 128 µg/mL | 32 µg/mL | 64 µg/mL | 32 µg/mL | C=CCc1cccc(Oc2ccc(C(=O)CC)cc2)c1OCCC[N+](C)(C)CC(=O)N(CC)CC.[Br-] | 733 µg/mL | 22.9 |
| 64 µg/mL | 128 µg/mL | 16 µg/mL | 8 µg/mL | 32 µg/mL | 4 µg/mL | C=CCc1cccc(Oc2ccc(C(=O)CC)cc2)c1OCCCC[N+](C)(C)CC(=O)NCCCCC.[Br-] | 564 µg/mL | 141 |
| 128 µg/mL | 128 µg/mL | 128 µg/mL | 64 µg/mL | 64 µg/mL | 32 µg/mL | C=CCc1cccc(Oc2ccc(C(=O)CC)cc2)c1OCCCC[N+](C)(C)CC(=O)NCCC.[Br-] | 823 µg/mL | 25.7 |
